Measured values from patent US20240247080A1, “GLP1/GIP/NPY2 RECEPTOR TRIPLE AGONISTS” (Boehringer Ingelheim International GmbH, priority 2022, published 2024).
Where two headings read alike, the source gives them in different places. Starred links: 1 amine or outer side, 2 acyl side, 3 side chain; linkers in the order of their positions; H or OH if unused. Non-standard residues stand in square brackets, D forms with d. Groups on a side chain read outwards from the residue. *: point of attachment. C20 diacid = O=C(O)CCCCCCCCCCCCCCCCCCC(=O)*; C18 diacid = O=C(O)CCCCCCCCCCCCCCCCC(=O)*; γGlu = O=C(O)[C@H](CCC(=O)[*:2])N[*:1]; εLys = N[C@@H](CCCCN[*:1])C(=O)[*:2]; AEEA = NCCOCCOCC(=O)O; Aib = CC(C)(N)C(=O)O

Tests used:
Assay type in all cases: cell-based
Conditions in all cases: CreLuc reporter gene assay
hNPY2R = molecular target: T1, hNPY2R (Homo sapiens, UniProt P49146); test: hNPY2R CreLuc reporter gene assay in 0.5% and 100% plasma
T1 construct: expressed in transfected cells; host or cells: HEK-293 cells carrying a CRE-luciferase reporter gene
T1 sequence (P49146 1-381): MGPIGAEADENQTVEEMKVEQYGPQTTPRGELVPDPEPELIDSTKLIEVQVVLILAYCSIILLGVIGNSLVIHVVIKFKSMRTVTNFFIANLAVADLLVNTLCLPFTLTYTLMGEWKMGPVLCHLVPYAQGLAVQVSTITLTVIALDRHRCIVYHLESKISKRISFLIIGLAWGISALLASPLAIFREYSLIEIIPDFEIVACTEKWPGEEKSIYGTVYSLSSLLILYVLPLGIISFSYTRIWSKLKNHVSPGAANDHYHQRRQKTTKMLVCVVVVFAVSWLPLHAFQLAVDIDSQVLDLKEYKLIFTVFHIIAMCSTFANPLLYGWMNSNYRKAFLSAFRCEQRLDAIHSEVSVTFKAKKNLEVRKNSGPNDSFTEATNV
Description: Example 1: hGLPR/hGIPR/hNPY2R CreLuc Assay in 0.5% and 100% Plasma
CHO and HEK-293 recombinant cell lines express a luciferase reporter gene under control of the cAMP responsive element (CRE). As a second recombinant protein the GLP-1 and NPY2 receptors were expressed in the reporter gene HEK cells, and the GIP receptor was expressed in the reporter gene CHO cells, respectively. Stimulation of these recombinant cells with an agonist leads to an increase of intracellular cAMP levels. In the presence of cAMP, the transcription factor CRE binding protein (CREB) binds to the CRE and to the CREB binding protein (CBP), which leads to transcription of the luciferase reporter gene. Peptides upon serial-dilution in 100% DMSO were transferred into 384-well assay plates with 5 μl pre-dispensed assay buffer (1×HBSS, 20 mM HEPES, pH7.4 supplemented with 0.5% human plasma) using acoustic dispensing on a Labcyte ECHO. Cryo-preserved transgenic reporter gene cells were thawed in assay buffer. 20 μl (10.000 cells/well) were added to the plate with the peptides and incubated for 4 hours at 37° C. in a humidified incubator. Following incubation, assay plates are equilibrated to room temperature, followed by addition of 25 μl of Bright-GIo™ Luciferase reagent, incubation at room temperature for 10 minutes and analysis of luminescence (Envision Reader). Concentration response evaluation of compounds was performed with 8 concentrations of peptides (covering four decades). EC50 values were calculated by non-linear regression using sigmoid concentration-response with variable slope. The same assays were run in the presence of 100% plasma with no additional buffer constituents.

hGLP1R = molecular target: T2, hGLP1R (Homo sapiens, UniProt P43220); test: hGLP1R CreLuc reporter gene assay in 0.5% and 100% plasma
T2 construct: expressed in transfected cells; host or cells: HEK-293 cells carrying a CRE-luciferase reporter gene
In short: (§1)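 HEK cells (GLP-1R, NPY2R) or CHO cells (GIPR) carrying a CRE-luciferase reporter, incubated 4 h at 37 °C with peptides in HBSS/20 mM HEPES pH 7.4 plus 0.5% human plasma, or in 100% plasma. Luminescence read; EC50 from 8-point variable-slope sigmoid fits.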

hGIPR = molecular target: T3, hGIPR (Homo sapiens, UniProt P48546); test: hGIPR CreLuc reporter gene assay in 0.5% and 100% plasma
T3 construct: expressed in transfected cells; host or cells: CHO cells carrying a CRE-luciferase reporter gene
T3 sequence (P48546 22-466): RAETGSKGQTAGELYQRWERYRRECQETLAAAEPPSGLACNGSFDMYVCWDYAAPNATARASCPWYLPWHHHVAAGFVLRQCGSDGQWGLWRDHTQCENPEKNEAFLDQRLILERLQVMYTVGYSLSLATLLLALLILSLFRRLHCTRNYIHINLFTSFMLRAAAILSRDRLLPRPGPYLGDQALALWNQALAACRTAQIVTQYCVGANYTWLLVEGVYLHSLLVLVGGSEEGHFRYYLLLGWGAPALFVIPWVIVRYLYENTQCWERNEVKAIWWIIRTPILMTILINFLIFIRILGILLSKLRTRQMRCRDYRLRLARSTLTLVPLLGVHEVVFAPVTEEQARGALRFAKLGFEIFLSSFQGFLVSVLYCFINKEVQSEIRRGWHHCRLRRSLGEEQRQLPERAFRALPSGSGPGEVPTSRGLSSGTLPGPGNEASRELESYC
In short: as §1

[1] = 100% human plasma, read-out: hNPY2R 100% hP
[2] = 0.5% human plasma, read-out: hGLP1R 0.5% hP
[3] = 0.5% human plasma, read-out: hGIPR 0.5% hP
[4] = 100% human plasma, read-out: hGIPR 100% hP
[5] = 0.5% human plasma, read-out: hNPY2R 0.5% hP
[6] = 100% human plasma, read-out: hGLP1R 100% hP

T2 sequence (P43220 24-463): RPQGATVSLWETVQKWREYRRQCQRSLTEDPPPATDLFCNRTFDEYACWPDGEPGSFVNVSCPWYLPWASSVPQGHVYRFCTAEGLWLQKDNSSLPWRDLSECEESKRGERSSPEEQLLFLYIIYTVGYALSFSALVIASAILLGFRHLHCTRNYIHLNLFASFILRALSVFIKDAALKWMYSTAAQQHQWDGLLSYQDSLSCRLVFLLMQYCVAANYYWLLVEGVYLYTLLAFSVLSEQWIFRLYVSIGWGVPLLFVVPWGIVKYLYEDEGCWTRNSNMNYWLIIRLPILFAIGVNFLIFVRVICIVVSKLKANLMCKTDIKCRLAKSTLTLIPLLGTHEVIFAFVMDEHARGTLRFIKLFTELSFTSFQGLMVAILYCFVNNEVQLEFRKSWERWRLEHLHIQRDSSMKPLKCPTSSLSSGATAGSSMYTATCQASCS

Molecule | EC50 (hNPY2R; [1]) [nM] | EC50 (hGLP1R; [2]) [nM] | EC50 (hGIPR; [3]) [nM] | EC50 (hGIPR; [4]) [nM] | EC50 (hNPY2R; [5]) [nM] | EC50 (hGLP1R; [6]) [nM]
H-Y[Aib]EGTFTSDYSI[Aib]LEKQAQ[Aib]EFVEWLIK([AEEA-AEEA-γGlu-C18 diacid])GGPSEGASLRHYYNWLTRQRY-NH2 [Compound 282, Y-Aib-E-G-T-F-T-S-D-Y-S-I-Aib-L-E-K-Q-A-Q-Aib-E-F-V-E-W-L-I-K(1,3)-GGPSEGASLRHYYNWLTRQRY-NH2.C18DA-gGlu-OEG-OEG(1,2)] | – | 0.51 | 0.17 | 1.03 | 17.3 | –
H-Y[Aib]EGTFTSDYSI[Aib]LEKQAQ[Aib]AFVEWLIK([γGlu-γGlu-γGlu-γGlu-C18 diacid])GGPEEGASLRHYYNWLTRQRY-NH2 [Compound 272, Y-Aib-E-G-T-F-T-S-D-Y-S-I-Aib-L-E-K-Q-A-Q-Aib-A-F-V-E-W-L-I-K(1,3)-GGPEEGASLRHYYNWLTRQRY-NH2.C18DA-gGlu-gGlu-gGlu-gGlu(1,2)] | – | 0.31 | 0.24 | 3.01 | 23.8 | –
H-Y[Aib]EGTFTSDYSI[Aib]LEKQAQ[Aib]AFVEWLIK([εLys-γGlu-γGlu-γGlu-γGlu-γGlu-γGlu-C20 diacid])GGPSEGQSLRHYYNWLTRQRY-NH2 [Compound 227, Y-Aib-E-G-T-F-T-S-D-Y-S-I-Aib-L-E-K-Q-A-Q-Aib-A-F-V-E-W-L-I-K(1,3)-GGPSEGQSLRHYYNWLTRQRY-NH2.C20DA-gGlu-gGlu-gGlu-gGlu-gGlu-gGlu-eLys(1,2)] | – | 0.13 | 0.06 | 1.23 | 10.2 | 3.07
H-Y[Aib]EGTFTSDYSI[Aib]LEKQAQ[Aib]AFVQWLIK([εLys-γGlu-γGlu-γGlu-γGlu-γGlu-γGlu-C18 diacid])GGPSSGASLRHYYNWLTRQRY-NH2 [Compound 170, Y-Aib-E-G-T-F-T-S-D-Y-S-I-Aib-L-E-K-Q-A-Q-Aib-A-F-V-Q-W-L-I-K(1,3)-GGPSSGASLRHYYNWLTRQRY-NH2.C18DA-gGlu-gGlu-gGlu-gGlu-gGlu-gGlu-eLys(1,2)] | – | 0.09 | 0.24 | 1.15 | 19.2 | –
H-Y[Aib]EGTFTSDYSI[Aib]LEKQAQ[dR]AFVEWLIK([εLys-γGlu-γGlu-γGlu-γGlu-γGlu-γGlu-C20 diacid])GGPSSGASLRHYYNWLTRQRY-NH2 [Compound 216, Y-Aib-E-G-T-F-T-S-D-Y-S-I-Aib-L-E-K-Q-A-Q-DArg-A-F-V-E-W-L-I-K(1,3)-GGPSSGASLRHYYNWLTRQRY-NH2.C20DA-gGlu-gGlu-gGlu-gGlu-gGlu-gGlu-eLys(1,2)] | 16.8 | 0.31 | – | – | – | –
H-Y[Aib]EGTFTSDYSI[Aib]LE[Aib]EAQ[Aib]KFVEWLIK([εLys-γGlu-γGlu-γGlu-γGlu-γGlu-γGlu-C20 diacid])GGPSSGASLRHYYNWLTRQRY-NH2 [Compound 16, Y-Aib-E-G-T-F-T-S-D-Y-S-I-Aib-L-E-Aib-E-A-Q-Aib-K-F-V-E-W-L-I-K(1,3)-GGPSSGASLRHYYNWLTRQRY-NH2.C20DA-gGlu-gGlu-gGlu-gGlu-gGlu-gGlu-eLys(1,2)] | 197 | 1.48 | – | – | 28.8 | –
H-Y[Aib]EGTFTSDYSI[Aib]LEKQAQ[Aib]AFVQWLIK([εLys-γGlu-γGlu-γGlu-γGlu-γGlu-γGlu-C20 diacid])GGPSYYVSLRHYYNWLTRQRY-NH2 [Compound 19, Y-Aib-E-G-T-F-T-S-D-Y-S-I-Aib-L-E-K-Q-A-Q-Aib-A-F-V-Q-W-L-I-K(1,3)-GGPSYYVSLRHYYNWLTRQRY-NH2.C20DA-gGlu-gGlu-gGlu-gGlu-gGlu-gGlu-eLys(1,2)] | 19.3 | 0.5 | – | – | – | 10.2

Stronger by EC50 (hGLP1R; [2]), values ahead:

EC50 (hNPY2R; [1]) [nM] | EC50 (hGLP1R; [2]) [nM] | EC50 (hGIPR; [3]) [nM] | EC50 (hGIPR; [4]) [nM] | EC50 (hNPY2R; [5]) [nM] | EC50 (hGLP1R; [6]) [nM] | Molecule
27.6 | 0.07 | 0.12 | 1.18 | – | – | H-Y[Aib]EGTFTSDYSI[Aib]LEKQAQ[Aib]AFVQWLIK([εLys-γGlu-γGlu-γGlu-γGlu-γGlu-C18 diacid])GGPSEGASLRHYYNWLTRQRY-NH2 [Compound 267, Y-Aib-E-G-T-F-T-S-D-Y-S-I-Aib-L-E-K-Q-A-Q-Aib-A-F-V-Q-W-L-I-K(1,3)-GGPSEGASLRHYYNWLTRQRY-NH2.C18DA-gGlu-gGlu-gGlu-gGlu-gGlu-eLys(1,2)]
87.6 | 0.04 | 0.06 | 0.5 | 30.9 | – | H-Y[Aib]EGTFTSDYSI[Aib]LEKQAQ[Aib]AFVEWLIK([εLys-γGlu-γGlu-γGlu-γGlu-γGlu-γGlu-C20 diacid])GGPSSGASL[Aib]HYYNWLTRQRY-NH2 [Compound 129, Y-Aib-E-G-T-F-T-S-D-Y-S-I-Aib-L-E-K-Q-A-Q-Aib-A-F-V-E-W-L-I-K(1,3)-G-G-P-S-S-G-A-S-L-Aib-H-Y-Y-N-W-L-T-R-Q-R-Y-NH2.C20DA-gGlu-gGlu-gGlu-gGlu-gGlu-gGlu-eLys(1,2)]
– | 0.04 | 0.05 | 0.84 | 13.2 | 1.6 | CC[C@H](C)[C@H](NC(=O)[C@H](CC(C)C)NC(=O)[C@H](Cc1c[nH]c2ccccc12)NC(=O)[C@H](CCC(=O)O)NC(=O)[C@@H](NC(=O)[C@H](Cc1ccccc1)NC(=O)[C@H](C)NC(=O)C(C)(C)NC(=O)[C@H](CCC(N)=O)NC(=O)[C@H](C)NC(=O)[C@H](CCC(N)=O)NC(=O)[C@H](CCCCN)NC(=O)[C@H](CCC(=O)O)NC(=O)[C@H](CC(C)C)NC(=O)C(C)(C)NC(=O)[C@@H](NC(=O)[C@H](CO)NC(=O)[C@H](Cc1ccc(O)cc1)NC(=O)[C@H](CC(=O)O)NC(=O)[C@H](CO)NC(=O)[C@@H](NC(=O)[C@H](Cc1ccccc1)NC(=O)[C@@H](NC(=O)CNC(=O)[C@H](CCC(=O)O)NC(=O)C(C)(C)NC(=O)[C@@H](N)Cc1ccc(O)cc1)[C@@H](C)O)[C@@H](C)O)[C@@H](C)CC)C(C)C)C(=O)N[C@@H](CCCCNC(=O)[C@@H](N)CCCCNC(=O)CC[C@H](NC(=O)CC[C@H](NC(=O)CC[C@H](NC(=O)CC[C@H](NC(=O)CC[C@H](NC(=O)CC[C@H](NC(=O)CCCCCCCCCCCCCCCCCCC(=O)O)C(=O)O)C(=O)O)C(=O)O)C(=O)O)C(=O)O)C(=O)O)C(=O)NCC(=O)NCC(=O)N1CCC[C@H]1C(=O)N[C@@H](CO)C(=O)N[C@@H](CO)C(=O)NCC(=O)N[C@@H](CCC(=O)O)C(=O)N[C@@H](CO)C(=O)N[C@@H](CC(C)C)C(=O)N[C@@H](CCCNC(=N)N)C(=O)N[C@@H](Cc1c[nH]cn1)C(=O)N[C@@H](Cc1ccc(O)cc1)C(=O)N[C@@H](Cc1ccc(O)cc1)C(=O)N[C@@H](CC(N)=O)C(=O)N[C@@H](Cc1c[nH]c2ccccc12)C(=O)N[C@@H](CC(C)C)C(=O)N[C@H](C(=O)N[C@@H](CCCNC(=N)N)C(=O)N[C@@H](CCC(N)=O)C(=O)N[C@@H](CCCNC(=N)N)C(=O)N[C@@H](Cc1ccc(O)cc1)C(N)=O)[C@@H](C)O [Compound 127, Y-Aib-E-G-T-F-T-S-D-Y-S-I-Aib-L-E-K-Q-A-Q-Aib-A-F-V-E-W-L-I-K(1,3)-GGPSSGESLRHYYNWLTRQRY-NH2.C20DA-gGlu-gGlu-gGlu-gGlu-gGlu-gGlu-eLys(1,2)]
